In patent US20020090380A1, “Novel formulation comprising thymol useful in the treatment of drug resistant bacterial infections” (priority 2000, published 2002):
Read-outs that look alike come from different tables or passages of the source.

How the values were obtained:
[1] = test system: Nal^R mutants of E. coli; type: cell-based, Escherichia coli; settings: 5 μg/ml
[2] = test system: E. coli CA 8000 (WT); type: cell-based, Escherichia coli
[3] = test system: lomefloxacin resistant cells of E. coli; type: cell-based, Escherichia coli; settings: 1.5 μg/ml
[4] = test system: Lom^R mutants of Mycobacterium smegmatis; type: cell-based; settings: Lom^R mutants isolated in medium with 20 μg/ml lomefloxacin
[5] = test system: Mycobacterium smegmetis wild type; type: cell-based

CCn1cc(C(=O)O)c(=O)c2cc(F)c(N3CCNC(C)C3)c(F)c21 (stereo not shown) [Lomefloxacin, lomefloxacin]
Growth in poison agar medium ([1]; CAN 101): −
Growth in poison agar medium ([1]; CAN 102): −
Growth in poison agar medium ([1]; CAN 103): −
Growth in poison agar medium ([1]; CAN 104): −
Growth in poison agar medium ([1]; CAN 105): −
Growth in poison agar medium ([1]; CAN 106): −
Growth in poison agar medium ([1]; CAN 107): −
Growth in poison agar medium ([1]; CAN 108): −
Growth in poison agar medium ([1]; CAN 109): −
Growth in poison agar medium ([1]; CAN 110): −
Growth in poison agar medium ([1]; CAN 111): −
Growth in poison agar medium ([1]; CAN 112): −
Growth in poison agar medium ([1]; CAN 113): −
Growth in poison agar medium ([1]; CAN 114): −
Growth in poison agar medium ([1]; CAN 115): −
Growth in poison agar medium ([1]; CAN 116): −
Growth in poison agar medium ([1]; CAN 117): −
Growth in poison agar medium ([1]; CAN 118): −
Growth in poison agar medium ([1]; CAN 119): −
Growth in poison agar medium ([1]; CAN 120): −
Growth in poison agar medium ([1]; CAN 121): −
Growth in poison agar medium ([1]; CAN 122): −
Growth in poison agar medium ([1]; CAN 123): −
Growth in poison agar medium ([1]; CAN 124): −
Growth in poison agar medium ([1]; CAN 125): −
Growth in poison agar medium ([1]; CAN 126): −
Growth in poison agar medium [2]: −
Growth in poison agar medium ([3]; CAL 101): +
Growth in poison agar medium ([3]; CAL 102): +
Growth in poison agar medium ([3]; CAL 103): +
Growth in poison agar medium ([3]; CAL 104): +
Growth in poison agar medium ([3]; CAL 105): +
Growth in poison agar medium ([3]; CAL 106): +
Growth in poison agar medium ([3]; CAL 107): +
Growth in poison agar medium ([3]; CAL 108): +
concentration upto which the mutants were resistant [4]: ≤ 60 µg/mL

CC[n+]1c(-c2ccccc2)c2cc(N)ccc2c2ccc(N)cc21 [ethidium bromide]
concentration at which the strain is killed [5]: 3 µg/mL
